In US9833497B2, “Human originated EGF domain proteins and use of the same” (CHENGDU SOURCEBIO LIMITED-LIABILITY COMPANY, priority 2013, dated 2017):

Experiments:
Format in all cases: cell-based
Enterobacter cloacae = assay: MIC against Gram-negative bacteria: Enterobacter cloacae
Method in brief: (§1)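 Purified recombinant human EGF domain proteins are tested by broth dilution in LB against a 5×10^5 CFU/mL inoculum, with two-fold serial dilutions run in triplicate. Plates are incubated at 37° C with shaking, and the MIC is read as the lowest protein concentration without growth.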

Aeromonas hydrophila = assay: MIC against Gram-negative bacteria: Aeromonas hydrophila
Method in brief: as §1

Pseudomonas aeruginosa = assay: MIC against Gram-negative bacteria: Pseudomonas aeruginosa
Method in brief: as §1

Klebsiella pneumonia = assay: MIC against Gram-negative bacteria: Klebsiella pneumonia
Method in brief: as §1

Serratia marcescens = assay: MIC against Gram-negative bacteria: Serratia marcescens
Method in brief: as §1

E. coli BL21 = assay: MIC against Gram-negative bacteria: E. coli BL21
Method in brief: as §1

Proteus mirabilis = assay: MIC against Gram-negative bacteria: Proteus mirabilis
Method in brief: as §1

Citrobacter diversus = assay: MIC against Gram-negative bacteria: Citrobacter diversus
Method in brief: as §1

E. coli DH5α = assay: Antibacterial activity: MIC and growth curve against E. coli DH5α in 96-well plate; conditions: minimal inhibitory concentration against E. coli DH5α; 96-well plate, 5×10^5 CFU/mL, 37° C., judged after 8 h
Method in brief: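 Log-phase bacteria (OD600 ~0.5) resuspended in LB at 5×10^5 CFU/mL, exposed to recombinant protein at 50, 25, 12.5 μg/mL final in triplicate, 37 °C shaking at 175 rpm. OD600 read every 30 min; MIC is lowest concentration showing no growth.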

Moraxella catarrhalis = assay: MIC against Gram-negative bacteria: Moraxella catarrhalis
Method in brief: as §1

Proteus vulgaris = assay: MIC against Gram-negative bacteria: Proteus vulgaris
Method in brief: as §1

[1] = Enterobacter cloacae, 5×10^5 CFU/mL, 10 h cultivation at 37° C.
[2] = Aeromonas hydrophila, 5×10^5 CFU/mL, 10 h cultivation at 37° C.
[3] = Pseudomonas aeruginosa, 5×10^5 CFU/mL, 10 h cultivation at 37° C.
[4] = Klebsiella pneumonia, 5×10^5 CFU/mL, 10 h cultivation at 37° C.
[5] = Serratia marcescens, 5×10^5 CFU/mL, 10 h cultivation at 37° C.
[6] = E. coli BL21, 5×10^5 CFU/mL, 10 h cultivation at 37° C.
[7] = Proteus mirabilis, 5×10^5 CFU/mL, 10 h cultivation at 37° C.
[8] = Citrobacter diversus, 5×10^5 CFU/mL, 10 h cultivation at 37° C.
[9] = Moraxella catarrhalis, 5×10^5 CFU/mL, 10 h cultivation at 37° C.
[10] = Proteus vulgaris, 5×10^5 CFU/mL, 10 h cultivation at 37° C.
[11] = 96-well plate, 5×10^5 CFU/mL, 37° C., 10 h
[12] = 10 h cultivation at 37° C., 5×10^5 CFU/mL, two-fold serial dilution

PRT1471 (GKNWCEEDMENGGCEYLCLPAPQINDHSPKYTCSCPSGYNVEENGRDCQ; listed as Homo sapiens)
MIC against E. cloacae (Enterobacter cloacae; [1]): 50 µg/mL
MIC against A. hydrophila (Aeromonas hydrophila; [2]): 25 µg/mL
MIC against P. aeruginosa (Pseudomonas aeruginosa; [3]): 50 µg/mL
MIC against K. pneumonia (Klebsiella pneumonia; [4]): 12.5 µg/mL
MIC against S. marcescens (Serratia marcescens; [5]): 25 µg/mL
MIC against E. coli BL21 (E. coli BL21; [6]): 25 µg/mL
MIC against P. mirabilis (Proteus mirabilis; [7]): 25 µg/mL
MIC against C. diversus (Citrobacter diversus; [8]): 50 µg/mL
MIC (E. coli DH5α): 12.5 µg/mL
MIC against M. catarrhalis (Moraxella catarrhalis; [9]): 25 µg/mL
MIC against P. vulgaris (Proteus vulgaris; [10]): 50 µg/mL

PRT999 (PEDNCTCHHGHCQRSSCVCDVGWTGPECE; listed as Homo sapiens)
MIC (Enterobacter cloacae; E. cloacae, 10 h cultivation at 37° C.): 25 µg/mL
MIC (Aeromonas hydrophila; A. hydrophila, 10 h cultivation at 37° C.): 50 µg/mL
MIC (Pseudomonas aeruginosa; P. aeruginosa, 10 h cultivation at 37° C.): 25 µg/mL
MIC (Klebsiella pneumonia; K. pneumonia, 10 h cultivation at 37° C.): 12.5 µg/mL
MIC (Serratia marcescens; S. marcescens, 10 h cultivation at 37° C.): 12.5 µg/mL
MIC (E. coli BL21; E. coli BL21, 10 h cultivation at 37° C.): 50 µg/mL
MIC (Proteus mirabilis; P. mirabilis, 10 h cultivation at 37° C.): 50 µg/mL
MIC (Citrobacter diversus; C. diversus, 10 h cultivation at 37° C.): 12.5 µg/mL
MIC (E. coli DH5α): 12.5 µg/mL
MIC (Moraxella catarrhalis; M. catarrhalis, 10 h cultivation at 37° C.): 25 µg/mL
MIC (Proteus vulgaris; P. vulgaris, 10 h cultivation at 37° C.): 25 µg/mL

PRT1478 (GGSPCISQPCLHNGSCQDSIWGYTCTCSPGYEGSNCE; listed as Homo sapiens)
MIC against E. cloacae (Enterobacter cloacae; [1]): 12.5 µg/mL
MIC against A. hydrophila (Aeromonas hydrophila; [2]): 50 µg/mL
MIC against P. aeruginosa (Pseudomonas aeruginosa; [3]): 50 µg/mL
MIC against K. pneumonia (Klebsiella pneumonia; [4]): 25 µg/mL
MIC against S. marcescens (Serratia marcescens; [5]): 12.5 µg/mL
MIC against E. coli BL21 (E. coli BL21; [6]): 12.5 µg/mL
MIC against P. mirabilis (Proteus mirabilis; [7]): 50 µg/mL
MIC against C. diversus (Citrobacter diversus; [8]): 12.5 µg/mL
MIC (E. coli DH5α): 50 µg/mL
MIC against M. catarrhalis (Moraxella catarrhalis; [9]): 25 µg/mL
MIC against P. vulgaris (Proteus vulgaris; [10]): 25 µg/mL

PRT1495 (KANCSTTCFNGGTCFYPGKCICPPGLEGE; listed as Homo sapiens)
MIC (μg/mL) E. cloacae (Enterobacter cloacae; Enterobacter cloacae, 96-well plate, 5×10^5 CFU/mL, 37° C., 10 h): 12.5 µg/mL
MIC (μg/mL) A. hydrophila (Aeromonas hydrophila; Aeromonas hydrophila, 96-well plate, 5×10^5 CFU/mL, 37° C., 10 h): 12.5 µg/mL
MIC (μg/mL) P. aeruginosa (Pseudomonas aeruginosa; Pseudomonas aeruginosa, 96-well plate, 5×10^5 CFU/mL, 37° C., 10 h): 25 µg/mL
MIC (μg/mL) K. pneumonia (Klebsiella pneumonia; Klebsiella pneumonia, 96-well plate, 5×10^5 CFU/mL, 37° C., 10 h): 25 µg/mL
MIC (μg/mL) S. marcescens (Serratia marcescens; Serratia marcescens, 96-well plate, 5×10^5 CFU/mL, 37° C., 10 h): 25 µg/mL
MIC (μg/mL) E. coli BL21 (E. coli BL21; E. coli BL21, 96-well plate, 5×10^5 CFU/mL, 37° C., 10 h): 12.5 µg/mL
MIC (μg/mL) P. mirabilis (Proteus mirabilis; Proteus mirabilis, 96-well plate, 5×10^5 CFU/mL, 37° C., 10 h): 50 µg/mL
MIC (μg/mL) C. diversus (Citrobacter diversus; Citrobacter diversus, 96-well plate, 5×10^5 CFU/mL, 37° C., 10 h): 50 µg/mL
MIC (E. coli DH5α): 25 µg/mL
MIC (μg/mL) M. catarrhalis (Moraxella catarrhalis; Moraxella catarrhalis, 96-well plate, 5×10^5 CFU/mL, 37° C., 10 h): 50 µg/mL
MIC (μg/mL) P. vulgaris (Proteus vulgaris; Proteus vulgaris, 96-well plate, 5×10^5 CFU/mL, 37° C., 10 h): 25 µg/mL

PRT663 (DVNECDDLNGPAVLCVHGYCENTEGSYRCHCSPGYVAEAGPPHCT; listed as Homo sapiens)
MIC E. cloacae (Enterobacter cloacae; [11]): 12.5 µg/mL
MIC A. hydrophila (Aeromonas hydrophila; [11]): 25 µg/mL
MIC P. aeruginosa (Pseudomonas aeruginosa; [11]): 50 µg/mL
MIC K. pneumonia (Klebsiella pneumonia; [11]): 25 µg/mL
MIC S. marcescens (Serratia marcescens; [11]): 12.5 µg/mL
MIC E. coli BL21 (E. coli BL21; [11]): 25 µg/mL
MIC P. mirabilis (Proteus mirabilis; [11]): 25 µg/mL
MIC C. diversus (Citrobacter diversus; [11]): 50 µg/mL
MIC (E. coli DH5α): 100 µg/mL
MIC M. catarrhalis (Moraxella catarrhalis; [11]): 12.5 µg/mL
MIC P. vulgaris (Proteus vulgaris; [11]): 50 µg/mL

PRT1090 (NNTRCLSNSCQNNSTCKDFSKDNDCSCSDTANNLDKDCD; listed as Homo sapiens)
MIC E. cloacae (Enterobacter cloacae; [12]): 50 µg/mL
MIC A. hydrophila (Aeromonas hydrophila; [12]): 12.5 µg/mL
MIC P. aeruginosa (Pseudomonas aeruginosa; [12]): 50 µg/mL
MIC K. pneumonia (Klebsiella pneumonia; [12]): 12.5 µg/mL
MIC S. marcescens (Serratia marcescens; [12]): 25 µg/mL
MIC E. coli BL21 (E. coli BL21; [12]): 12.5 µg/mL
MIC P. mirabilis (Proteus mirabilis; [12]): 25 µg/mL
MIC C. diversus (Citrobacter diversus; [12]): 25 µg/mL
MIC (E. coli DH5α): 25 µg/mL
MIC M. catarrhalis (Moraxella catarrhalis; [12]): 50 µg/mL
MIC P. vulgaris (Proteus vulgaris; [12]): 12.5 µg/mL

PRT1461 (CNCNTSGTVDGDITCHQNSGQCKCKANVIGLRCDHCNFGFKFLRSFNDVGCEP; listed as Homo sapiens)
MIC against E. cloacae (Enterobacter cloacae; [1]): 25 µg/mL
MIC against A. hydrophila (Aeromonas hydrophila; [2]): 12.5 µg/mL
MIC against P. aeruginosa (Pseudomonas aeruginosa; [3]): 50 µg/mL
MIC against K. pneumonia (Klebsiella pneumonia; [4]): 12.5 µg/mL
MIC against S. marcescens (Serratia marcescens; [5]): 25 µg/mL
MIC against E. coli BL21 (E. coli BL21; [6]): 12.5 µg/mL
MIC against P. mirabilis (Proteus mirabilis; [7]): 25 µg/mL
MIC against C. diversus (Citrobacter diversus; [8]): 25 µg/mL
MIC (E. coli DH5α): 25 µg/mL
MIC against M. catarrhalis (Moraxella catarrhalis; [9]): 12.5 µg/mL
MIC against P. vulgaris (Proteus vulgaris; [10]): 12.5 µg/mL
